Assay results taken from patent US7595337B2, “Mitotic kinesin inhibitors” (Merck & Co. Inc., priority 2005, dated 2009).

Biological target: T1, human poly-histidine tagged KSP motor domain (KSP(367H)) (Homo sapiens, UniProt P52732)
T1 construct: were used to amplify the motor domain and the neck linker region; made in house; host or cells: E. coli BL21 (DE3), pRSETa
T1 sequence (P52732 18-359 limits assumed): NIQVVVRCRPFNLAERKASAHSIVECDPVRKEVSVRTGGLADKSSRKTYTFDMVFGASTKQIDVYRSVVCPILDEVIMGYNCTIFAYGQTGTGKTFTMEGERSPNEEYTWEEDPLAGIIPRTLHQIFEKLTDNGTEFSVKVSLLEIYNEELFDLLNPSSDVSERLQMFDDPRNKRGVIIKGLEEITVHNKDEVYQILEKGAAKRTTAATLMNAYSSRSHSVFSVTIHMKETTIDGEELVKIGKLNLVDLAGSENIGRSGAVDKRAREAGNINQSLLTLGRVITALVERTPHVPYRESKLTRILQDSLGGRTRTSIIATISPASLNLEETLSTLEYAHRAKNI
Experiment: Kinesin ATPase In Vitro Assay
Assay type: biochemical
Details: for IC50: microtubules, 1 mM ATP, 23° C., quinaldine red/ammonium molybdate phosphate readout
Excerpt: I. Kinesin ATPase In Vitro Assay
Cloning and expression of human poly-histidine tagged KSP motor domain (KSP(367H)): Plasmids for the expression of the human KSP motor domain construct were cloned by PCR using a pBluescript full length human KSP construct (Blangy et al., Cell, vol. 83, pp 1159-1169, 1995) as a template. The N-terminal primer 5′-[…] (SEQ. ID. NO.: 1) and the C-terminal primer 5′-[…] […] (SEQ. ID. NO.: 2)
were used to amplify the motor domain and the neck linker region. The PCR products were digested with AseI and XhoI, ligated into the NdeI/XhoI digestion product of pRSETa (Invitrogen) and transformed into E. coli BL21 (DE3).
Cells were grown at 37° C. to an OD600 of 0.5. After cooling the culture to room temperature expression of KSP was induced with 100 μM IPTG and incubation was continued overnight. Cells were pelleted by centrifugation and washed once with ice-cold PBS. Pellets were flash-frozen and stored −80° C.
Protein Purification: Cell pellets were thawed on ice and resuspended in lysis buffer (50 mM K-HEPES, pH 8.0, 250 mM KCl, 0.1% Tween, 10 mM imidazole, 0.5 mM Mg-ATP, 1 mM PMSF, 2 mM benzimidine, 1× complete protease inhibitor cocktail (Roche)). Cell suspensions were incubated with 1 mg/ml lysozyme and 5 mM β-mercaptoethanol on ice for 10 minutes, followed by sonication (3×30 sec). All subsequent procedures were performed at 4° C. Lysates were centrifuged at 40,000×g for 40 minutes. Supernatants were diluted and loaded onto an SP Sepharose column (Pharmacia, 5 ml cartridge) in buffer A (50 mM K-HEPES, pH 6.8, 1 mM MgCl2, 1 mM EGTA, 10 μM Mg-ATP, 1 mM DTT) and eluted with a 0 to 750 mM KCl gradient in buffer A. Fractions containing KSP were pooled and incubated with Ni-NTA resin (Qiagen) for one hour. The resin was washed three times with buffer B (Lysis buffer minus PMSF and protease inhibitor cocktail), followed by three 15-minute incubations and washes with buffer B. Finally, the resin was incubated and washed for 15 minutes three times with buffer C (same as buffer B except for pH 6.0) and poured into a column. KSP was eluted with elution buffer (identical to buffer B except for 150 mM KCl and 250 mM imidazole). KSP-containing fractions were pooled, made 10% in sucrose, and stored at −80° C.
Microtubules are prepared from tubulin isolated from bovine brain. Purified tubulin (>97% MAP-free) at 1 mg/ml is polymerized at 37° C. in the presence of 10 μM paclitaxel, 1 mM DTT, 1 mM GTP in BRB80 buffer (80 mM K-PIPES, 1 mM EGTA, 1 mM MgCl2 at pH 6.8). The resulting microtubules are separated from non-polymerized tubulin by ultracentrifugation and removal of the supernatant. The pellet, containing the microtubules, is gently resuspended in 10 μM paclitaxel, 1 mM DTT, 50 μg/ml ampicillin, and 5 μg/ml chloramphenicol in BRB80.
The kinesin motor domain is incubated with microtubules, 1 mM ATP (1:1 MgCl2: Na-ATP), and compound at 23° C. in buffer containing 80 mM K-HEPES (pH 7.0), 1 mM EGTA, 1 mM DTT, 1 mM MgCl2, and 50 mM KCl. The reaction is terminated by a 2-10 fold dilution with a final buffer composition of 80 mM HEPES and 50 mM EDTA. Free phosphate from the ATP hydrolysis reaction is measured via a quinaldine red/ammonium molybdate assay by adding 150 μl of quench C buffer containing a 2:1 ratio of quench A:quench B. Quench A contains 0.1 mg/ml quinaldine red and 0.14% polyvinyl alcohol; quench B contains 12.3 mM ammonium molybdate tetrahydrate in 1.15 M sulfuric acid. The reaction is incubated for 10 minutes at 23° C., and the absorbance of the phosphomolybdate complex is measured at 540 nm.

Compound | IC50 | activity of resolved enantiomer (active / inactive) (assay not named) | relative inhibitory activity of the diastereomers (the cis diastereomer (eluted second) compared with the other, assay not named)
CC(=O)N1N=C2c3cc(F)ccc3OCC2C1(C)c1ccccc1 (mixture of isomers) [Compound 2-2, 2-acetyl-8-fluoro-3-methyl-3-phenyl-2,3,3a,4-tetrahydrochromeno[4,3-c]pyrazole] | ≤ 30 µM | – | –
CC(=O)N1N=C2c3cc(F)ccc3OCC2C1c1ccccc1 (centres unmarked) [Compound 1-2, 2-acetyl-8-fluoro-3-phenyl-2,3,3a,4-tetrahydrochromeno[4,3-c]pyrazole] | ≤ 30 µM | – | higher inhibitory activity
CC(=O)N1N=C2c3cc(F)ccc3OC[C@H]2[C@H]1c1ccccc1 [Compound 1-3, (3S,3aS)-2-acetyl-8-fluoro-3-phenyl-2,3,3a,4-tetrahydrochromeno[4,3-c]pyrazole] | ≤ 30 µM | active | –
O=C(N1N=C2c3cc(F)ccc3OCC2C1(CCCO)c1ccccc1)C(F)(F)F (centres unmarked) [Compound 3-7, 3-[8-fluoro-3-phenyl-2-(trifluoroacetyl)-2,3,3a,4-tetrahydrochromeno[4,3-c]pyrazol-3-yl]propan-1-ol] | ≤ 30 µM | – | –
CC(=O)N1CCN(CCCC2(c3ccccc3)C3COc4ccc(F)cc4C3=NN2C(=O)C(F)(F)F)CC1 (centres unmarked) [Compound 3-8, 3-[3-(4-acetylpiperazin-1-yl)propyl]-8-fluoro-3-phenyl-2-(trifluoroacetyl)-2,3,3a,4-tetrahydrochromeno[4,3-c]pyrazole] | ≤ 30 µM | – | –
CC(=O)N1CCN(CCC[C@@]2(c3ccccc3)[C@@H]3COc4ccc(F)cc4C3=NN2C(=O)C(F)(F)F)CC1 [Compound 3-9, (3S,3aS)-3-[3-(4-acetylpiperazin-1-yl)propyl]-8-fluoro-3-phenyl-2-(trifluoroacetyl)-2,3,3a,4-tetrahydrochromeno[4,3-c]pyrazole] | ≤ 30 µM | active | –
CN(C)CCCC1(c2ccccc2)C2COc3ccc(F)cc3C2=NN1C(=O)C(F)(F)F (centres unmarked) [Compound 3-10, {3-[8-fluoro-3-phenyl-2-(trifluoroacetyl)-2,3,3a,4-tetrahydrochromeno[4,3-c]pyrazol-3-yl]propyl}dimethylamine] | ≤ 30 µM | – | –
O=C(N1N=C2c3cc(F)ccc3OCC2C1(CCCN1CCOCC1)c1ccccc1)C(F)(F)F (centres unmarked) [Compound 3-11, 8-fluoro-3-(3-morpholin-4-ylpropyl)-3-phenyl-2-(trifluoroacetyl)-2,3,3a,4-tetrahydrochromeno[4,3-c]pyrazole] | ≤ 30 µM | – | –

More lines, now with the values ahead:

IC50 | activity of resolved enantiomer (active / inactive) (assay not named) | relative inhibitory activity of the diastereomers (the cis diastereomer (eluted second) compared with the other, assay not named) | Compound
≤ 30 µM | – | – | CC(=O)N1N=C2c3cc(F)ccc3OCC2C1(CCC1OCCCO1)c1ccccc1 (mixture of isomers) [Compound 5-4, 2-acetyl-3-[2-(1,3-dioxan-2-yl)ethyl]-8-fluoro-3-phenyl-2,3,3a,4-tetrahydrochromeno[4,3-c]pyrazole]
≤ 30 µM | – | – | CC(=O)N1CCN(CCC[C@@]2(c3ccccc3)[C@H]3COc4ccc(F)cc4C3=NN2C(C)=O)CC1 (relative stereo) [Compound 4-1, cis-2-acetyl-3-[3-(4-acetylpiperazin-1-yl)propyl]-8-fluoro-3-phenyl-2,3,3a,4-tetrahydrochromeno[4,3-c]pyrazole]
≤ 30 µM | active | – | CC(=O)N1CCN(CCC[C@@]2(c3ccccc3)[C@@H]3COc4ccc(F)cc4C3=NN2C(C)=O)CC1 (single isomer, unassigned) [Compound 5-5]
≤ 30 µM | active | – | CC(=O)N1CCN(CCC[C@@]2(c3ccccc3)[C@H]3COc4ccc(F)cc4C3=NN2C(C)=O)CC1 (single isomer, unassigned) [Compound 5-6]
